What was measured:
[1] = system: ATXN3 transcripts containing exon 4 (E4E5) in SK-N-MC cells; assay: ATXN3 Quantitative Splicing Assay (qPCR, E4E5 transcripts containing exon 4); format: cell-based; details: Homo sapiens, 24 h treatment, qPCR primers/probe E4E5
Method: Human neuroblastoma SK-N-MC cells were plated in 384-well plates at 20,000 cells/well. Twenty-four hours after plating, cells were treated with compounds for 24 h at appropriate concentrations ranging from 30 μM to 0.6 nM (0.3% DMSO). Treated cells were lysed in 15 μL of lysis buffer, and cDNA was synthesized using the Fast Advanced Cells-to-Ct kit. Two μL of each cDNA was used in qPCR reactions to confirm the exon 4 skipped transcripts of ATXN3. A second set of primers/probe E4E5 was used to detect the transcripts containing exon 4. The third set of primers/probe E8E9 was used to detect total gene level of ATXN3. The qPCR reactions were prepared in 384-well plates in 10 μL volume, using TaqMan™ Fast Advanced Master Mix with primers and probes shown in the table below. Reactions were run in a Quant Studio 6 qPCR instrument with default settings.
The primers and probes are listed below in Table 4.
(§1) Compounds were tested as outlined in Examples 2 and 3 above and the results are shown below in Table 5.

[2] = system: total ATXN3 protein levels in SK-N-MC cells; assay: ATXN3 Total Protein Assay (MSD); format: cell-based; details: Homo sapiens, 48 hours incubation
Method: Human neuroblastoma SK-N-MC cells were seeded at 10,000 cells/well in 384 well plates one day prior to compound treatment. The concentrations of compounds were tested at appropriate doses ranging from 30 μM to 0.6 nM. After incubation for 48 hours, the cells were lysed with 25 μL of lysis buffer containing protease inhibitors, and total ATXN3 protein levels were assessed by Mesoscale Discovery (MSD) assay developed with one pair of anti-ATXN3 antibodies. The capture and detect antibodies were raised in mouse and rabbit respectively. Anti-rabbit MSD-ST antibody was used for secondary antibody.
ATXN3 recombinant protein was used for standards. The readouts were captured with 35 μL of MSD read buffer and multi-array 384-well high binding plates.
as §1

Row | SMILES | IC50 [1] [µM] | IC50 [2] [µM]
1 | Cc1c(C[C@H](C)N)sc2c(NCc3ccncc3)cnnc12 [Compound 1, 6-[(2S)-2-aminopropyl]-7-methyl-N-[(pyridin-4-yl)methyl]thieno[3,2-c]pyridazin-4-amine] | 5 to 10 | 5 to 10
2 | Brc1csc2c(NCc3ccncc3)cnnc12 [Compound 41, 7-bromo-N-[(pyridin-4-yl)methyl]thieno[3,2-c]pyridazin-4-amine] | 0.101 to 0.5 | 10 to 40
3 | Cc1c(C[C@H](C)N)sc2c(NCc3ccncn3)cnnc12 [Compound 22, 6-[(2S)-2-aminopropyl]-7-methyl-N-[(pyrimidin-4-yl)methyl]thieno[3,2-c]pyridazin-4-amine] | 10 to 40 | 10 to 40
4 | c1cc(CNc2cnnc3ccsc23)ccn1 [Compound 33, N-[(pyridin-4-yl)methyl]thieno[3,2-c]pyridazin-4-amine] | 10 to 40 | 10 to 40
5 | Cc1c(C[C@H](C)N)sc2c(NCc3ccccc3F)cnnc12 [Compound 6, 6-[(2S)-2-aminopropyl]-N-[(2-fluorophenyl)methyl]-7-methylthieno[3,2-c]pyridazin-4-amine] | 0.501 to 5 | 5 to 10
6 | CC[C@H](N)Cc1sc2c(NCc3ccncc3)cnnc2c1C [Compound 10, 6-[(2S)-2-aminobutyl]-7-methyl-N-[(pyridin-4-yl)methyl]thieno[3,2-c]pyridazin-4-amine] | 10 to 40 | 10 to 40
7 | C[C@H](N)Cc1cc2nnc(Br)c(NCc3ccccc3)c2s1 [Compound 40, 6-[(2S)-2-aminopropyl]-N-benzyl-3-bromothieno[3,2-c]pyridazin-4-amine] | 10 to 40 | 10 to 40
8 | Cc1c(C[C@H](C)N)sc2c(NCc3ccccc3)cnnc12 [Compound 37, 6-[(2S)-2-aminopropyl]-N-benzyl-7-methylthieno[3,2-c]pyridazin-4-amine] | 0.501 to 5 | 0.501 to 5
9 | C[C@H](N)Cc1sc2c(NCc3ccncc3)cnnc2c1Br [Compound 20, 6-[(2S)-2-aminopropyl]-7-bromo-N-[(pyridin-4-yl)methyl]thieno[3,2-c]pyridazin-4-amine] | 5 to 10 | 10 to 40
10 | Cc1c(C[C@H](C)N)sc2c(NCc3ccncc3F)cnnc12 [Compound 4, 6-[(2S)-2-aminopropyl]-N-[(3-fluoropyridin-4-yl)methyl]-7-methylthieno[3,2-c]pyridazin-4-amine] | 5 to 10 | 10 to 40
11 | C[C@H](N)Cc1sc2c(NCc3ccncc3)cnnc2c1Cl [Compound 8, 6-[(2S)-2-aminopropyl]-7-chloro-N-[(pyridin-4-yl)methyl]thieno[3,2-c]pyridazin-4-amine] | 10 to 40 | 10 to 40

Other lines, results leading:

Row | IC50 [1] [µM] | IC50 [2] [µM] | SMILES
12 | 10 to 40 | 10 to 40 | Cc1c(C[C@@H](N)CO)sc2c(NCc3ccccc3F)cnnc12 [Compound 7, (2R)-2-amino-3-(4-{[(2-fluorophenyl)methyl]amino}-7-methylthieno[3,2-c]pyridazin-6-yl)propan-1-ol]
13 | 0.501 to 5 | 0.501 to 5 | Cc1c(C[C@@H](N)CO)sc2c(NCc3ccccc3)cnnc12 [Compound 39, (2R)-2-amino-3-[4-(benzylamino)-7-methylthieno[3,2-c]pyridazin-6-yl]propan-1-ol]
14 | 10 to 40 | 10 to 40 | Cc1csc2c(NCc3ccccc3F)cnnc12 [Compound 36, N-[(2-fluorophenyl)methyl]-7-methylthieno[3,2-c]pyridazin-4-amine]
15 | 10 to 40 | 10 to 40 | Cc1csc2c(NCc3ccncc3F)cnnc12 [Compound 35, N-[(3-fluoropyridin-4-yl)methyl]-7-methylthieno[3,2-c]pyridazin-4-amine]
16 | 5 to 10 | 10 to 40 | Cc1c(C[C@@H](N)CO)sc2c(NCc3ccncc3)cnnc12 [Compound 3, (2R)-2-amino-3-(7-methyl-4-{[(pyridin-4-yl)methyl]amino}thieno[3,2-c]pyridazin-6-yl)propan-1-ol]
17 | 10 to 40 | 10 to 40 | Cc1c(C[C@@H](N)CCO)sc2c(NCc3ccncc3)cnnc12 [Compound 11, (3S)-3-amino-4-(7-methyl-4-{[(pyridin-4-yl)methyl]amino}thieno[3,2-c]pyridazin-6-yl)butan-1-ol]
18 | 10 to 40 | 10 to 40 | Clc1csc2c(NCc3ccncc3)cnnc12 [Compound 38, 7-chloro-N-[(pyridin-4-yl)methyl]thieno[3,2-c]pyridazin-4-amine]
19 | 10 to 40 | 10 to 40 | Cc1csc2c(NCc3ccncn3)cnnc12 [Compound 34, 7-methyl-N-[(pyrimidin-4-yl)methyl]thieno[3,2-c]pyridazin-4-amine]
20 | 5 to 10 | 0.501 to 5 | Cc1c(C[C@@H](N)CCO)sc2c(NCc3ccccc3)cnnc12 [Compound 42, (3S)-3-amino-4-[4-(benzylamino)-7-methylthieno[3,2-c]pyridazin-6-yl]butan-1-ol]
21 | 5 to 10 | 10 to 40 | Cc1c(C[C@@H](N)CO)sc2c(NCc3ccncc3F)cnnc12 [Compound 5, (2R)-2-amino-3-(4-{[(3-fluoropyridin-4-yl)methyl]amino}-7-methylthieno[3,2-c]pyridazin-6-yl)propan-1-ol]
22 | 10 to 40 | 10 to 40 | Cc1c(C[C@@H](N)CO)sc2c(NCc3ccncn3)cnnc12 [Compound 23, (2R)-2-amino-3-(7-methyl-4-{[(pyrimidin-4-yl)methyl]amino}thieno[3,2-c]pyridazin-6-yl)propan-1-ol]
